Test results from publication PMC5543107, “Inhibition of glutamate decarboxylase (GAD) by ethyl ketopentenoate (EKP) induces treatment-resistant epileptic seizures in zebrafish” (Scientific Reports, 2017).
Where “and” joins values, the source holds several entries; their conditions need not be identical. Identical values can stand only once.

What was measured:
zebrafish larvae = test system: zebrafish larvae; design: method as in PMID 25845493; details: AG 200 mM − 300 mM; cited from earlier work
GAD = target: GAD; design: method as in PMID 29640; details: in vitro studies; read-out: Ki for GAD inhibition; cited from earlier work
mice = test system: mice; design: method as in PMID 29640; details: intracerebroventricular (icv) administration; cited from earlier work
[1] = test system: EKP-treated Tg(elavl3:GA) zebrafish larvae; experiment: Effect of ASDs on EKP-induced neuroluminescent events; assay type: in vivo, Danio rerio; details: ASD at MTC (ETS 250 µM, TGB 50 µM), 18 h, 400 µM EKP, 30-min recording
Procedure: Recordings were performed as described earlier.

[2] = test system: EKP-treated zebrafish larvae; experiment: Effect of ASDs on EKP-induced epileptiform discharges (LFP); assay type: in vivo, Danio rerio; details: ASD at MTC, 18 h pre-incubation, 400 µM EKP, 10-min LFP recording
Procedure: Then, the larvae were treated with 400 µM EKP (or VHC), embedded in agarose, and the LFP recordings were performed as described earlier.

[3] = test system: EKP-treated zebrafish larvae; experiment: Effect of ASDs on EKP-induced locomotion activity; assay type: in vivo, Danio rerio; details: ASD at MTC, 18 h pre-incubation, 400 µM EKP
Procedure: Then, the larvae were treated with 400 µM EKP (or VHC) and the locomotion activity was monitored for 30 min (after 5 min of habituation) as described earlier. The average amount of movement per 5-min intervals was measured, quantified and normalized to the EKP control group for the entire 30-min tracking session or per 5-min interval.

c-fos expression = c-fos expression in larval heads by qPCR; assay type: in vivo, Danio rerio; details: 7 dpf larval heads, 15 min, 400 μM EKP or 20 mM PTZ (positive control)
Procedure: To measure the seizure-related changes in c-fos mRNA expression in the CNS, 12 larvae (7 dpf) were treated with either 20 mM PTZ, 400 μM EKP or VHC for 15 min and then rapidly decapitated. The heads were immediately processed for RNA isolation followed by cDNA synthesis as described for gad1b and gad2. qPCR analysis of c-fos mRNA expression using Bio-Rad 20x PrimePCR assays (c-fos assay ID: qDreCED0015103) was performed as described for gad1b and gad2, and normalized to the housekeeping gene ef1α and β-actin 1 (primers, Table S1).

7 dpf zebrafish larvae [4] = experiment: Survival rate of larvae exposed to EKP; assay type: in vivo, Danio rerio; details: 400 μM EKP, first 30 min
Procedure: Larvae (7 dpf) were arrayed individually in a 96-well plate, exposed to EKP (200 μM-800 μM) or VHC (control) and immediately scored under a stereomicroscope for lethality every 5 min for 1 h.

7 dpf zebrafish larvae [5] = experiment: Local field potential (LFP) recordings in the optic tectum after EKP; assay type: in vivo, Danio rerio
Procedure: Larvae (6 dpf) in 100 µl VHC were arrayed individually in a 96-well plate and kept for 18 h in the dark at 28 °C. […] Next, the treated larva was embedded ventral side down in 2% low melting point agarose bathed in artificial cerebrospinal fluid (ACSF, 124 mM NaCl, 2 mM KCl, 2 mM MgSO4, 2 mM CaCl2, 1.25 mM KH2PO4, 26 mM NaHCO3, and 10 mM glucose). A blunt glass electrode (soda lime glass, Hilgenberg, Germany) was pulled with DMZ Universal Puller (Zeitz, Germany) to an opening of 15–20 microns, filled with ACSF and placed on the skin above the optic tectum. The recordings were performed using WinEDR (John Dempster, University of Strathclyde, UK). Differential signal was band pass filtered at 0.3–300 Hz and digitized at 2 kHz via a PCI-6251 interface (National Instruments, UK). LFP recordings started each time exactly 2 min after the removal of the larva from the EKP solution (or VHC) and were continued for 10 min at room temperature (24 °C).
EKP-induced events were considered as epileptiform activity when their signal exceeded three times the baseline and lasted for minimum 100 msec, as described previously. Electrophysiological recordings were analyzed in a blinded way using Clampfit 10.2 software (Molecular Devices, USA).

7 dpf zebrafish larvae [6] = experiment: EKP-induced locomotor activity, automated video tracking; assay type: in vivo, Danio rerio
Procedure: Larvae (6 dpf) in 100 µl VHC were arrayed individually in a 96-well plate (tissue culture plate, flat bottom, Falcon, USA) and kept for 18 h in the dark at 28 °C. Prior to tracking the following day (7 dpf) 100 μl of VHC or EKP stock solution was added to each well to obtain a range of EKP concentrations (200 μM-800 μM). The plates were placed in an automated video tracking device (ZebraBox^TM apparatus; Viewpoint, Lyon, France) and 5 min later the locomotor behavior of the larvae was monitored for 2 h in the dark at 28 °C. Locomotor activity was quantified using ZebraLab™ software (Viewpoint, Lyon, France) and expressed in “actinteg” units per 5-min interval. The actinteg value is defined as the sum of all image pixel changes detected during the time window.
These seizures are defined as rapid corkscrew-like accompanied with entire body jerking and twitching, which are easily distinguished from other behavioral abnormalities (for description of phase 1 and 3 seizures, see results).

[7] = test system: Tg(elavl3:GA) zebrafish larvae; experiment: Neuroluminescence recording of Tg(elavl3:eGFP-apoAequorin) larvae exposed to EKP; assay type: in vivo, Danio rerio; details: 400 µM EKP, 30-min recording, vs VHC
Procedure: Tg(elavl3:eGFP-apoAequorin) zebrafish larvae were visually screened for even GFP expression at 3 dpf. Selected larvae were incubated with VHC in 40 µM CLZN-h for 18–24 h in the dark at 28 °C[38]. Excess of CLZN-h was removed by washing larvae repeatedly in E3 medium afterwards. […] The recordings started each time exactly 5 min after EKP exposure and were continued for 30 min. Photons emitted were detected by a photon-counting tube (Type H3460–04, Hamamatsu Photonics, Japan) that was positioned about 2 cm above the larvae. Light impulses were discriminated, prescaled and counted with a PC-based 32-bit counter/timer board (PCI-6601, National Instruments Corporation, Austin, TX, USA). The number of impulses occurring during a 5-sec time interval was monitored with custom-built software. Analysis of the bioluminescence recordings was done in a blinded way.

[8] = 7 dpf larvae, 200-800 μM tested

C=CCC(N)C(=O)O (stereo not drawn) [AG, 2-amino-4-pentenoic acid]
Outcome of seizures at high AG concentrations (zebrafish larvae): lethal
Ki (GAD): ~50 mM

C=CC[C@@H](N)C(=O)O [D-AG]
ED50 for seizure induction (mice): 804 µg/kg

C=CCC(=O)C(=O)O [KPA, 2-keto-4-pentenoic acid]
ED50 for seizure induction (mice): 14.5 µg/kg
Ki (GAD): 0.001 mM

C=CC[C@H](N)C(=O)O [L-AG]
ED50 for seizure induction (mice): 375 µg/kg

N#Cc1ccccc1-c1cc(-c2ccccn2)cn(-c2ccccc2)c1=O [PER, perampanel]
Effect on EKP-induced neuronal activity (cumulative photons emitted) [1]: significantly diminished
Effect on number of epileptiform discharges generated by EKP [2]: significantly attenuated
Effect on EKP-induced locomotion (whole 30-min recording) [3]: significantly prevented

O=C1NC(=O)C(c2ccccc2)(c2ccccc2)N1 [PHT, phenytoin]
Effect on EKP-induced neuronal activity (cumulative photons emitted) [1]: significantly diminished
Effect on number of epileptiform discharges generated by EKP [2]: did not show significant effects

C1CCc2nnnn2CC1 [PTZ, Pentylenetetrazol]
c-fos expression compared to VHC (c-fos expression): significantly increased

CCOC(=O)Nc1ccc(NCc2ccc(F)cc2)cc1N [RGB, retigabine]
Effect on EKP-induced neuronal activity (cumulative photons emitted) [1]: significantly diminished
Effect on number of epileptiform discharges generated by EKP [2]: did not show significant effects

CC1(C)O[C@@H]2[C@@H](CO[C@@]3(COS(N)(=O)=O)OC(C)(C)O[C@@H]23)O1 [TPM, topiramate]
Effect on EKP-induced neuronal activity (cumulative photons emitted) [1]: significantly diminished
Effect on number of epileptiform discharges generated by EKP [2]: significantly attenuated

NS(=O)(=O)Cc1noc2ccccc12 [ZSM, zonisamide]
Effect on EKP-induced neuronal activity (cumulative photons emitted) [1]: significantly diminished
Effect on number of epileptiform discharges generated by EKP [2]: significantly attenuated

ethyl ketopentenoate [EKP]
Larval death (7 dpf zebrafish larvae [4]): without inducing any larval death
Mean frequency of epileptiform events (7 dpf zebrafish larvae [5]; 400 μM EKP 15 min, optic tectum, 10-min recording, n = 58): 55.76 ± 6.87 events/10 min and 55.76 ± 6.872 events/10 min
Larvae with multiple epileptiform events (7 dpf zebrafish larvae [5]; 400 μM EKP, number of larvae out of total): 58/58
Locomotor activity (7 dpf zebrafish larvae [6]; 400 μM EKP, 7 dpf larvae, vs VHC): robust increase of locomotor activity
EKP concentrations at which a second phase (hyperactivity plateau) followed (7 dpf zebrafish larvae [6]; [8]): ≥ 300 µM
EKP concentrations with third phase (irreversible decline of total larval movement, paralysis, death) (7 dpf zebrafish larvae [6]; [8]): 300 to 800 µM
Fold lower concentration inducing hyperactivity compared with AG (7 dpf zebrafish larvae [6]; zebrafish larvae, AG data ref 13): 100 fold
c-fos expression compared to VHC (c-fos expression): significantly increased
Averaged aequorin light signal [7]: increased
